From patent publication US11786555B2, “RAR selective agonists in combination with immune modulators for cancer immunotherapy” (IO THERAPEUTICS, INC., priority 2017, dated 2023)

Tests used:
[1] = tested on: H929 cells and CD138+ primary MM cells; test: qRT-PCR of B cell and PC markers in MM cells, liquid or BM stroma co-culture; format: cell-based, human; settings: absence of stroma (Liquid), 1 μM for 5 days
Procedure: FIG. 3A-H depicts the relative concentration of plasma markers BCL6 (FIG. 3A and E), BLIMP-1 (FIG. 3B and F), XBPS-1 (FIG. 3C and G), and CHOP (FIG. 3D and H) in multiple myeloma (MM) cell lines H929 (FIG. 3A-D) or CD138+ MM cells from three different patient samples (FIG. 3E-H) incubated for 5 days either in the absence of stroma (Liquid), with or without AGN (RA receptor antagonist AGN194310, 1 μM), or co-cultured with BM mesenchymal cells (Stroma), with or without R115 (CYP26 inhibitor R115866, 1 μM) or IRX (CYP26-resistant retinoid IRX5183, 1 μM). Expression in untreated liquid conditions was set at 1. Data are representative of 3 independent experiments with similar results and represent the mean ±SEM. *P≤0.05 and **P≤0.01, by repeated-measures 1-way ANOVA for determination of statistical significance between groups; P values were corrected for multiple comparisons using Dunnett's test. Ctrl, control; max, maximum.
(§1) Coculture experiments. 24-well plates were coated with 0.1% gelatin in PBS for 30 min at 37° C. The gelatin solution was removed, and the stromal cells were cultured overnight at a density of 5×10^4 cells/well to obtain a confluent monolayer. At that time, MM cell lines or primary MM cells (1×10^5 in 2 ml) were added to the stroma cultures. The stroma cocultures were incubated at 37° C. in RPMI containing 10% FCS, L-glutamine, and P/S, with or without AGN194310 (1 μM for 5 days), R115866 (1 μM for 5 days), IRX5183 (1 μM for 5 days), or BTZ (2.5 nM for 48 hr).
(§2) qRT-PCR. Total RNA was extracted using the RNeasy Mini Kit (QIAGEN) according to the manufacturer's instructions. cDNA was synthesized by reverse transcription using the iScript cDNA Synthesis Kit (Bio-Rad). qRT-PCR was performed with iTaq SYBR Green Supermix (Bio-Rad) using sequence specific primers. Gene expression was normalized to GAPDH, and relative quantification was calculated using ΔΔCt. All experiments were performed in duplicate and run on the Bio-Rad CFX96 machine.
The BM microenvironment (also called “niche”) limits PC differentiation by modulating retinoid signaling. A population of MM progenitors, phenotypically similar to B cells, is intrinsically resistant to BTZ and contributes to MRD and relapse. To investigate whether the BM niche plays a role in determining the phenotype of MM cells, the mRNA expression of B cell and PC markers in MM H929 cell lines (FIG. 3A-D) and MM CD138+ primary cells (FIG. 3E-H) was analyzed following co-culture with mouse BM stroma using human-specific primers. […] In contrast, co-culture of MM cells with BM stroma decreased the mRNA expression of B lymphocyte-induced maturation protein 1 (BLIMP1) and spliced X box-binding protein 1 (XBP1s) (FIG. 3B, C, F, G), which are critical mediators of PC differentiation.
The BM niche regulates hematopoietic stem cell (HSC) differentiation by expressing the retinoid-inactivating enzyme CYP26. CYP26 enzymes were highly expressed in BM mesenchymal cells, while their expression was barely detectable in MM cells. Since retinoid signaling promotes PC differentiation and potentiates Ig secretion, it was determined whether stromal CYP26 is responsible for inducing a B cell phenotype in MM cells. To this end, co-culture conditions were treated with the CYP26 inhibitor R115866 (R115) or the CYP26-resistant RA receptor α-selective (RARα-selective) retinoid IRX5183 (IRX).

MM cells = test: surface CD138 expression of MM cells by flow cytometry; format: cell-based, human; settings: absence of stroma, 1 μM
Procedure: as §1
Flow cytometry. Following treatment, MM cells were collected, washed with PBS, and stained for 15 min at room temperature with phycoerythrin-conjugated (PE-conjugated) anti-CD138. Cells were washed to remove unbound antibody and evaluated in a FACSCalibur system (BD Biosciences). Stromal cells were identified by GFP expression, and viable cells were identified using 7-aminoactinomycin D (7-AAD). To calculate cell numbers, live GFP-cells were normalized to calibration beads.
Expression of CD138 is a hallmark of normal PC differentiation as well MM PCs.

[2] = tested on: H929 cells and primary CD138+ MM cells; test: clonogenic or cellular recovery of MM cells after BTZ treatment; format: cell-based, human; settings: absence of stroma, 1 μM for 5 days, then BTZ 2.5 nM
Procedure: FIG. 4A-B depicts the clonogenic recovery (CFU) of H929 cells (FIG. 4A) or cellular recovery of primary CD138+ MM cells from 3 different patient samples (FIG. 4B). MM cells were treated with bortezomib (BTZ; 2.5 nM) for 48 hours after being incubated for 5 days either in the absence of stroma (Liquid), with or without the pan-RAR inhibitor AGN (1 μM), or in the presence of BM mesenchymal cells (Stroma), with or without the CYP26 inhibitor R115 (1 μM) or the CYP26-resistant retinoid IRX (1 μM). Clonogenic or cellular recovery was normalized to each condition in the absence of BTZ.
as §1
Clonogenic assays. After treatment, MM cells were collected, washed with PBS, and plated at a density of 5,000 cells/ml in 1 ml of 1.32% methylcellulose supplemented with 30% FBS, 10% BSA, L-glutamine, P/S, and 0.1 mM β-ME. Cells were plated in triplicate in 35-mm culture dishes, incubated at 37° C., and scored for the presence of colonies 14 days later.
A RA-low microenvironment induces BTZ resistance. To determine whether decreased retinoid signaling contributes to BTZ resistance within the BM niche, MM cell lines and MM CD138+ primary cells were incubated with BM stroma for 5 days, followed by BTZ treatment.

[3] = tested on: FLT3/ITD acute myeloid leukemia (AML) cells; settings: cited from earlier work
NB4 cells = test: CFU experiments, off and on stroma; format: cell-based; settings: 10^−7 M ATRA, IRX5183, or 10^−8 M AM80
Text: (§3) Data across three independent experiments.

OCI-AML3 cells = test: CFU experiments, off and on stroma; format: cell-based; settings: 10^−6 M ATRA, IRX5183, or 10^−7 M AM80
Text: as §3

Kasumi-1 cells = test: CFU experiments, off and on stroma; format: cell-based; settings: 10^−6 M ATRA, IRX5183, or 10^−7 M AM80
Text: as §3

BM stromal cells = test: stromal Cyp26a1 upregulation by MM cells in coculture; format: cell-based, mouse; settings: coculture with MM cells
Procedure: as §2
To confirm the role of paracrine Hedgehog on this interaction, smoothened (Smo), a membrane receptor that transduces SHH signaling, was knocked out at the genomic level in the mesenchymal compartment. For this, BM mesenchymal cells derived from Smo^fl/fl mice were transduced with a retroviral vector encoding Cre recombinase (Smo-KO stroma). Mouse Smo^fl/fl stromal cells transduced with an empty retroviral vector were used as a control (WT stroma). The transduced BM stromal cells were cocultured with MM cells for 24 hr.

[4] = tested on: relapse/refractory patients; settings: in combination with BTZ; cited from earlier work

CCc1ccc(C2=CC(C)(C)Sc3ccc(C#Cc4ccc(C(=O)O)cc4)cc32)cc1 [AGN194310]
mRNA expression of B cell and PC markers (BCL6, BLIMP1, XBP1s, CHOP) [1]: mimicked the changes induced by BM stromal cells | surface CD138 expression (MM cells): markedly decreased | effect on BTZ sensitivity [2]: decreasing BTZ sensitivity

CC1(C)CCC(C)(C)c2cc(NC(=O)c3ccc(C(=O)O)cc3)ccc21 [AM80, 4-[(5,6,7,8-tetrahydro-5,5,8,8-tetramethyl-2-naphthalenyl)carbamoyl]benzoic acid]
differentiation and sensitivity to FLT3 inhibitors [3]: differentiates FMS-like tyrosine kinase 3/internal tandem duplication (FLT3/ITD) acute myeloid leukemia (AML) cells and increase their sensitivity to FLT3 inhibitors | clonogenic growth (CFU), differentiation and elimination of AML (NB4 cells): decrease in clonogenic growth compared to control | clonogenic growth (CFU), differentiation and elimination of AML (OCI-AML3 cells): decrease in clonogenic growth compared to control | clonogenic growth (CFU), differentiation and elimination of AML (Kasumi-1 cells): decrease in clonogenic growth compared to control

CC1=C2C[C@H]3[C@@H](CC=C4C[C@@H](O)CC[C@@]43C)[C@@H]2CC[C@]12O[C@@H]1C[C@H](C)CN[C@H]1[C@H]2C [cyclopamine]
stromal Cyp26a1 upregulation by MM cells (BM stromal cells): partially overcame stromal Cyp26a1 upregulation by MM cells

c1cc(CN2CCCNCCNCCCNCC2)ccc1CN1CCCNCCNCCCNCC1 [plerixafor]
response rates [4]: improved response rates
